In patent US9951077B2, “Aminopyridazinone compounds as protein kinase inhibitors” (ETERNITY BIOSCIENCE INC., priority 2014, dated 2018):
pIC50: −log10 of the molar value.

Biological target: Btk (Homo sapiens (Human), UniProt Q06187)
Assay: Btk kinase assay (ADP-Glo)
Type: biochemical
Conditions: ATP 1.2 μM, 60 minutes, room temperature; read-out: BTK enzyme IC50
Outline: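 Recombinant human Btk (2 ng/μl) with poly GT peptide (0.3 μM), ATP (1.2 μM), MnCl2 (1.4 mM) and DTT (40 nM), 60 min at room temperature (22±1° C.). ADP formed was read by ADP-Glo luminescence after ATP depletion. IC50 from log concentration versus percent inhibition relative to DMSO vehicle.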

Sequence of Btk (Q06187 whole entry): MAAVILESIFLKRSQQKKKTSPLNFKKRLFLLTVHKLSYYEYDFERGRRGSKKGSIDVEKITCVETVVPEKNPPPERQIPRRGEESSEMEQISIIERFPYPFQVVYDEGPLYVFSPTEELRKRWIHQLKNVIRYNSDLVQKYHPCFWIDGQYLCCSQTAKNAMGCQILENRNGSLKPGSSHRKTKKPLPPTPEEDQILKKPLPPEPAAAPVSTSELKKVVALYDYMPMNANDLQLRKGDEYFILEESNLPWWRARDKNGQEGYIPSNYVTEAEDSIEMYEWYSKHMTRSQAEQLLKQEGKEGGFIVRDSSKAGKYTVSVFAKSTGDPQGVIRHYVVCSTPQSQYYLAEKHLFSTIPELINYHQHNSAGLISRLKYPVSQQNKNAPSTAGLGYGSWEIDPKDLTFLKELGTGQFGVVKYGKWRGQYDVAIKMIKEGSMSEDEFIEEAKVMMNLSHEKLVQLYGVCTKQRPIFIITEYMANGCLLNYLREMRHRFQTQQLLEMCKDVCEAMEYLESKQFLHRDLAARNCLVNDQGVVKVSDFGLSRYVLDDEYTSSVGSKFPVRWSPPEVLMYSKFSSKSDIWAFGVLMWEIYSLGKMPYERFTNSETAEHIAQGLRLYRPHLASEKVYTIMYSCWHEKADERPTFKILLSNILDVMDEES

pIC50 | SMILES
6.00 to 8.00 | COc1cc(-c2cn([C@@H]3CCCN(C(=O)/C=C/CN(C)C)C3)c3c(=O)[nH]nc(N)c23)ccc1Oc1ccc(Cl)c(Cl)c1 [Example 73, 4-amino-3-[4-(3,4-dichlorophenoxy)-3-methoxy-phenyl]-1-[(3R)-1-[(E)-4-(dimethylamino)but-2-enoyl]-3-piperidyl]-6H-pyrrolo[2,3-d]pyridazin-7-one]
6.00 to 8.00 | C=CC(=O)N1CCC[C@@H](n2cc(-c3ccc(Oc4ccccc4)c(F)c3)c3c(N)n[nH]c(=O)c32)C1 [Example 74, (R)-1-(1-acryloylpiperidin-3-yl)-4-amino-3-(3-fluoro-4-phenoxyphenyl)-1H-pyrrolo[2,3-d]pyridazin-7(6H)-one]
≥ 8.00 | CN(C)C/C=C/C(=O)N1CCC[C@@H](n2cc(-c3ccc(Oc4ccccc4)c(F)c3)c3c(N)n[nH]c(=O)c32)C1 [Example 75, 4-amino-1-[(3R)-1-[(E)-4-(dimethylamino)but-2-enoyl]-3-piperidyl]-3-(3-fluoro-4-phenoxy-phenyl)-6H-pyrrolo[2,3-d]pyridazin-7-one]
6.00 to 8.00 | C=CC(=O)N1CCC[C@@H](n2cc(-c3ccc(Oc4ccccc4)cc3F)c3c(N)n[nH]c(=O)c32)C1 [Example 76, (R)-1-(1-acryloylpiperidin-3-yl)-4-amino-3-(2-fluoro-4-phenoxyphenyl)-1H-pyrrolo[2,3-d]pyridazin-7(6H)-one]
≥ 8.00 | CN(C)C/C=C/C(=O)N1CCC[C@@H](n2cc(-c3ccc(Oc4ccccc4)cc3F)c3c(N)n[nH]c(=O)c32)C1 [Example 77, 4-amino-1-[(3R)-1-[(E)-4-(dimethylamino)but-2-enoyl]-3-piperidyl]-3-(2-fluoro-4-phenoxy-phenyl)-6H-pyrrolo[2,3-d]pyridazin-7-one]
≥ 8.00 | C=CC(=O)N1CCC[C@@H](n2cc(-c3ccc(Oc4c(F)cccc4Cl)cc3)c3c(N)n[nH]c(=O)c32)C1 [Example 78, (R)-1-(1-acryloylpiperidin-3-yl)-4-amino-3-(4-(2-chloro-6-fluorophenoxy)phenyl)-1H-pyrrolo[2,3-d]pyridazin-7(6H)-one]
≥ 8.00 | CN(C)C/C=C/C(=O)N1CCC[C@@H](n2cc(-c3ccc(Oc4c(F)cccc4Cl)cc3)c3c(N)n[nH]c(=O)c32)C1 [Example 79, 4-amino-3-[4-(2-chloro-6-fluoro-phenoxy)phenyl]-1-[(3R)-1-[(E)-4-(dimethylamino)but-2-enoyl]-3-piperidyl]-6H-pyrrolo[2,3-d]pyridazin-7-one]
6.00 to 8.00 | C=CC(=O)N1CCC[C@@H](n2c(F)c(-c3ccc(Oc4ccccc4)cc3)c3c(N)n[nH]c(=O)c32)C1 [Example 81, (R)-1-(1-acryloylpiperidin-3-yl)-4-amino-2-fluoro-3-(4-phenoxyphenyl)-1H-pyrrolo[2,3-d]pyridazin-7(6H)-one]
≥ 8.00 | CN(C)C/C=C/C(=O)N1CCC[C@@H](n2c(F)c(-c3ccc(Oc4ccccc4)cc3)c3c(N)n[nH]c(=O)c32)C1 [Example 82, 4-amino-1-[(3R)-1-[(E)-4-(dimethylamino)but-2-enoyl]-3-piperidyl]-2-fluoro-3-(4-phenoxyphenyl)-6H-pyrrolo[2,3-d]pyridazin-7-one]
4.00 to 6.00 | C=CC(=O)N1CCC[C@@H](n2c(Cl)c(-c3ccc(Oc4ccccc4F)cc3)c3c(N)n[nH]c(=O)c32)C1 [Example 83, (R)-1-(1-acryloylpiperidin-3-yl)-4-amino-2-chloro-3-(4-(2-fluorophenoxy)phenyl)-1H-pyrrolo[2,3-d]pyridazin-7(6H)-one]
6.00 to 8.00 | N#CN1CCC[C@@H](n2cc(-c3ccc(Oc4c(F)cccc4F)cc3)c3c(N)n[nH]c(=O)c32)C1 [Example 84, (R)-3-(4-amino-3-(4-(2,6-difluorophenoxy)phenyl)-7-oxo-6,7-dihydro-1H-pyrrolo[2,3-d]pyridazin-1-yl)piperidine-1-carbonitrile]
6.00 to 8.00 | N#CN1CCC[C@@H](n2cc(-c3ccc(Oc4ccccc4)c(F)c3)c3c(N)n[nH]c(=O)c32)C1 [Example 85, (R)-3-(4-amino-3-(3-fluoro-4-phenoxyphenyl)-7-oxo-6,7-dihydro-1H-pyrrolo[2,3-d]pyridazin-1-yl)piperidine-1-carbonitrile]
4.00 to 6.00 | N#CN1CCC[C@@H](n2c(Cl)c(-c3ccc(Oc4ccccc4F)cc3)c3c(N)n[nH]c(=O)c32)C1 [Example 86, (R)-3-(4-amino-2-chloro-3-(4-(2-fluorophenoxy)phenyl)-7-oxo-6,7-dihydro-1H-pyrrolo[2,3-d]pyridazin-1-yl)piperidine-1-carbonitrile]
≥ 8.00 | N#CN1CCC[C@@H](n2cc(-c3ccc(Oc4ccccc4F)cc3)c3c(N)n[nH]c(=O)c32)C1 [Example 87, (R)-3-(4-amino-3-(4-(2-fluorophenoxy)phenyl)-7-oxo-6,7-dihydro-1H-pyrrolo[2,3-d]pyridazin-1-yl)piperidine-1-carbonitrile]
≥ 8.00 | C=CC(=O)Nc1cccc(-n2cc(-c3ccc(Oc4ccccc4)cc3)c3c(N)n[nH]c(=O)c32)c1 [Example 88, N-(3-(4-amino-7-oxo-3-(4-phenoxyphenyl)-6,7-dihydro-1H-pyrrolo[2,3-d]pyridazin-1-yl)phenyl)acrylamide]
6.00 to 8.00 | C=CC(=O)Nc1ccc(-n2cc(-c3ccc(Oc4ccccc4)cc3)c3c(N)n[nH]c(=O)c32)cc1 [Example 90, N-(4-(4-amino-7-oxo-3-(4-phenoxyphenyl)-6,7-dihydro-1H-pyrrolo[2,3-d]pyridazin-1-yl)phenyl)acrylamide]
6.00 to 8.00 | C=CC(=O)Nc1cccc(-n2cc(-c3ccc(Oc4ccccc4F)cc3)c3c(N)n[nH]c(=O)c32)c1 [Example 91, N-(3-(4-amino-3-(4-(2-fluorophenoxy)phenyl)-7-oxo-6,7-dihydro-1H-pyrrolo[2,3-d]pyridazin-1-yl)phenyl)acrylamide]
6.00 to 8.00 | CC#CC(=O)N1CC[C@@H](n2cc(-c3ccc(Oc4c(F)cccc4Cl)cc3)c3c(N)n[nH]c(=O)c32)C1 [Example 94, (R)-4-amino-1-(1-(but-2-ynoyl)pyrrolidin-3-yl)-3-(4-(2-chloro-6-fluorophenoxy)phenyl)-1H-pyrrolo[2,3-d]pyridazin-7(6H)-one]
6.00 to 8.00 | CC#CC(=O)N1CC[C@@H](n2cc(-c3ccc(Oc4ccccc4F)cc3)c3c(N)n[nH]c(=O)c32)C1 [Example 95, (R)-4-amino-1-(1-(but-2-ynoyl)pyrrolidin-3-yl)-3-(4-(2-fluorophenoxy)phenyl)-1H-pyrrolo[2,3-d]pyridazin-7(6H)-one]
6.00 to 8.00 | CC#CC(=O)N1CC[C@@H](n2cc(-c3ccc(Oc4ccccc4Cl)cc3)c3c(N)n[nH]c(=O)c32)C1 [Example 96, (R)-4-amino-1-(1-(but-2-ynoyl)pyrrolidin-3-yl)-3-(4-(2-chlorophenoxy)phenyl)-1H-pyrrolo[2,3-d]pyridazin-7(6H)-one]
6.00 to 8.00 | CC#CC(=O)N1CC[C@@H](n2cc(-c3ccc(Oc4ccccc4)cc3)c3c(N)n[nH]c(=O)c32)C1 [Example 97, (R)-4-amino-1-(1-(but-2-ynoyl)pyrrolidin-3-yl)-3-(4-phenoxyphenyl)-1H-pyrrolo[2,3-d]pyridazin-7(6H)-one]
6.00 to 8.00 | CC#CC(=O)N1C[C@H](OC)[C@@H](n2cc(-c3ccc(Oc4ccccc4F)cc3)c3c(N)n[nH]c(=O)c32)C1 [Example 98, 4-amino-1-((3S,4S)-1-(but-2-ynoyl)-4-methoxypyrrolidin-3-yl)-3-(4-(2-fluorophenoxy)phenyl)-1H-pyrrolo[2,3-d]pyridazin-7(6H)-one]
≥ 8.00 | CN(C)CC#CC(=O)N1CC[C@@H](n2cc(-c3ccc(Oc4ccccc4F)cc3)c3c(N)n[nH]c(=O)c32)C1 [Example 99, (R)-4-amino-1-(1-(4-(dimethylamino)but-2-ynoyl)pyrrolidin-3-yl)-3-(4-(2-fluorophenoxy)phenyl)-1H-pyrrolo[2,3-d]pyridazin-7(6H)-one]
6.00 to 8.00 | CC#CC(=O)NC1CCC(n2cc(-c3ccc(Oc4ccccc4F)cc3)c3c(N)n[nH]c(=O)c32)C1 (stereo not drawn) [Example 100, N-(3-(4-amino-3-(4-(2-fluorophenoxy)phenyl)-7-oxo-6,7-dihydro-1H-pyrrolo[2,3-d]pyridazin-1-yl)cyclopentyl)but-2-ynamide]
4.00 to 6.00 | CC#CC(=O)N1CC[C@H](n2cc(-c3ccc(Oc4ccccc4F)cc3)c3c(N)n[nH]c(=O)c32)C1 [Example 101, (S)-4-amino-1-(1-(but-2-ynoyl)pyrrolidin-3-yl)-3-(4-(2-fluorophenoxy)phenyl)-1H-pyrrolo[2,3-d]pyridazin-7(6H)-one]
6.00 to 8.00 | C=CC(=O)N[C@H]1CC[C@@H](n2cc(-c3ccc(Oc4ccccc4F)cc3)c3c(N)n[nH]c(=O)c32)CC1 [Example 104, N-((1s,4s)-4-(4-amino-3-(4-(2-fluorophenoxy)phenyl)-7-oxo-6,7-dihydro-1H-pyrrolo[2,3-d]pyridazin-1-yl)cyclohexyl)acrylamide]

SMILES | pIC50
C=CC(=O)N1CCC[C@@H](n2c(Cl)c(-c3ccc(Oc4ccccc4)cc3)c3c(N)n[nH]c(=O)c32)C1 [Example 80, (R)-1-(1-acryloylpiperidin-3-yl)-4-amino-2-chloro-3-(4-phenoxyphenyl)-1H-pyrrolo[2,3-d]pyridazin-7(6H)-one] | 6.00 to 8.00
C=CC(=O)Nc1cccc(-n2cc(-c3ccc(OC)c(Cl)c3)c3c(N)n[nH]c(=O)c32)c1 [Example 89, N-(3-(4-amino-3-(3-chloro-4-methoxyphenyl)-7-oxo-6,7-dihydro-1H-pyrrolo[2,3-d]pyridazin-1-yl)phenyl)acrylamide] | 6.00 to 8.00
CN(C)C/C=C/C(=O)Nc1cccc(-n2cc(-c3ccc(Oc4ccccc4F)cc3)c3c(N)n[nH]c(=O)c32)c1 [Example 92, (E)-N-[3-[4-amino-3-[4-(2-fluorophenoxy)phenyl]-7-oxo-6H-pyrrolo[2,3-d]pyridazin-1-yl]phenyl]-4-(dimethylamino)but-2-enamide] | 6.00 to 8.00
CC#CC(=O)N[C@H]1CC[C@@H](n2cc(-c3ccc(Oc4ccccc4F)cc3)c3c(N)n[nH]c(=O)c32)CC1 [Example 102, N-((1s,4s)-4-(4-amino-3-(4-(2-fluorophenoxy)phenyl)-7-oxo-6,7-dihydro-1H-pyrrolo[2,3-d]pyridazin-1-yl)cyclohexyl)but-2-ynamide] | 6.00 to 8.00
